# According to ChEMBL document CHEMBL3885861, “Open TG-GATES”:
# Species on record: Rattus norvegicus
# Assay: Open TG-GATES - Regimen: Daily Repeat
# Assay type: toxicity, organism-based, Sprague-Dawley
# Design: regimen Daily Repeat, gender Male, age 6 weeks
# Conditions: in vivo, po, 100 mg/kg, route gavage, dose level Middle; for APTT / Bas / Eos / Fbg / Hb / Ht / Lym / MCH / MCHC / MCV / Mono / Neu / PT / Plat / RBC / Ret / WBC: tissue Blood; for KIDNEY_L / KIDNEY_R / KIDNEY_TOTAL: tissue Kidney; for LIVER: tissue Liver; for A/G / ALP / ALT / AST / BUN / CRE / Ca / Cl / DBIL / GLC / IP / K / LDH / Na / PL / RALB / TBIL / TC / TG / TP / gamma-GTP: tissue Plasma
structure (smiles),measurement,setting,value
NNC(=O)c1ccncc1 [ISONIAZID],TERMINAL_BW,"72 h, time 3 day",217.2 g
same,APTT,"72 h, time 3 day",15.8 s
same,Bas,"72 h, time 3 day",0%
same,Eos,"72 h, time 3 day",0.6%
same,Fbg,"72 h, time 3 day",245.2 mg/dL
same,Hb,"72 h, time 3 day",13.4 g/dL
same,Ht,"72 h, time 3 day",40.2%
same,Lym,"72 h, time 3 day",82.2%
same,MCH,"72 h, time 3 day",21.8 pg
same,MCHC,"72 h, time 3 day",33.4%
same,MCV,"72 h, time 3 day",65.2 fL
same,Mono,"72 h, time 3 day",5%
same,Neu,"72 h, time 3 day",12.2%
same,PT,"72 h, time 3 day",12.1 s
same,Plat,"72 h, time 3 day",115.4 x10_4/uL
same,RBC,"72 h, time 3 day",616.6 x10_4/ul
same,Ret,"72 h, time 3 day",7.3%
same,WBC,"72 h, time 3 day",87 x10_2/uL
same,KIDNEY_L,"72 h, time 3 day",1.1 g
same,KIDNEY_R,"72 h, time 3 day",1.1 g
same,KIDNEY_TOTAL,"72 h, time 3 day",2.1 g
same,LIVER,"72 h, time 3 day",11.5 g
same,A/G,"72 h, time 3 day",1.7
same,ALP,"72 h, time 3 day",962 IU/L
same,ALT,"72 h, time 3 day",18.6 IU/L
same,AST,"72 h, time 3 day",55 IU/L
same,BUN,"72 h, time 3 day",17.2 mg/dL
same,CRE,"72 h, time 3 day",0.5 mg/dL
same,Ca,"72 h, time 3 day",10.9 mg/dL
same,Cl,"72 h, time 3 day",103.4 meq/L
same,DBIL,"72 h, time 3 day",0.014 mg/dL
same,GLC,"72 h, time 3 day",204.2 mg/dL
same,IP,"72 h, time 3 day",8.6 mg/dL
same,K,"72 h, time 3 day",5 meq/L
same,LDH,"72 h, time 3 day",93.4 IU/L
same,Na,"72 h, time 3 day",140.6 meq/L
same,PL,"72 h, time 3 day",158.6 mg/dL
same,RALB,"72 h, time 3 day",3.7 g/dL
same,TBIL,"72 h, time 3 day",0.3 mg/dL
same,TC,"72 h, time 3 day",81.4 mg/dL
same,TG,"72 h, time 3 day",104.6 mg/dL
same,TP,"72 h, time 3 day",6 g/dL
same,gamma-GTP,"72 h, time 3 day",1 IU/L
same,TERMINAL_BW,"[…], time 7 day",244.8 g
same,TERMINAL_BW,"[…], time 14 day",283.5 g
same,TERMINAL_BW,"[…], time 28 day",361.7 g
same,APTT,"[…], time 7 day",16.2 s
same,Bas,"[…], time 7 day",0%
same,Eos,"[…], time 7 day",1%
same,Fbg,"[…], time 7 day",234.8 mg/dL
same,Hb,"[…], time 7 day",13.6 g/dL
same,Ht,"[…], time 7 day",40.6%
same,Lym,"[…], time 7 day",84.2%
same,MCH,"[…], time 7 day",21.2 pg
same,MCHC,"[…], time 7 day",33.5%
same,MCV,"[…], time 7 day",63.2 fL
same,Mono,"[…], time 7 day",6.6%
same,Neu,"[…], time 7 day",8.8%
same,PT,"[…], time 7 day",12.2 s
same,Plat,"[…], time 7 day",121.4 x10_4/uL
same,RBC,"[…], time 7 day",641.8 x10_4/ul
same,Ret,"[…], time 7 day",6.3%
same,WBC,"[…], time 7 day",150.1 x10_2/uL
same,APTT,"[…], time 14 day",15.7 s
same,Bas,"[…], time 14 day",0%
same,Eos,"[…], time 14 day",0.8%
same,Fbg,"[…], time 14 day",221.4 mg/dL
same,Hb,"[…], time 14 day",13.9 g/dL
same,Ht,"[…], time 14 day",41.4%
same,Lym,"[…], time 14 day",83.4%
same,MCH,"[…], time 14 day",19.7 pg
same,MCHC,"[…], time 14 day",33.6%
same,MCV,"[…], time 14 day",58.6 fL
same,Mono,"[…], time 14 day",4.6%
same,Neu,"[…], time 14 day",10.8%
same,PT,"[…], time 14 day",12.1 s
same,Plat,"[…], time 14 day",125.3 x10_4/uL
same,RBC,"[…], time 14 day",706.6 x10_4/ul
same,Ret,"[…], time 14 day",5.1%
same,WBC,"[…], time 14 day",172.6 x10_2/uL
same,APTT,"[…], time 28 day",16.3 s
same,Bas,"[…], time 28 day",0%
same,Eos,"[…], time 28 day",1.4%
same,Fbg,"[…], time 28 day",227.4 mg/dL
same,Hb,"[…], time 28 day",14.4 g/dL
same,Ht,"[…], time 28 day",42.8%
same,Lym,"[…], time 28 day",80.6%
same,MCH,"[…], time 28 day",18.6 pg
same,MCHC,"[…], time 28 day",33.8%
same,MCV,"[…], time 28 day",55 fL
same,Mono,"[…], time 28 day",3.6%
same,Neu,"[…], time 28 day",14.4%
same,PT,"[…], time 28 day",12.2 s
same,Plat,"[…], time 28 day",119.2 x10_4/uL
same,RBC,"[…], time 28 day",780 x10_4/ul
same,Ret,"[…], time 28 day",2.9%
same,WBC,"[…], time 28 day",151.6 x10_2/uL
same,KIDNEY_L,"[…], time 7 day",1.1 g
same,KIDNEY_R,"[…], time 7 day",1.1 g
same,KIDNEY_TOTAL,"[…], time 7 day",2.2 g
same,KIDNEY_L,"[…], time 14 day",1.2 g
same,KIDNEY_R,"[…], time 14 day",1.2 g
same,KIDNEY_TOTAL,"[…], time 14 day",2.5 g
same,KIDNEY_L,"[…], time 28 day",1.4 g
same,KIDNEY_R,"[…], time 28 day",1.5 g
same,KIDNEY_TOTAL,"[…], time 28 day",2.9 g
same,LIVER,"[…], time 7 day",11.5 g
same,LIVER,"[…], time 14 day",12.7 g
same,LIVER,"[…], time 28 day",15.3 g
same,A/G,"[…], time 7 day",1.6
same,ALP,"[…], time 7 day",823.2 IU/L
same,ALT,"[…], time 7 day",15.4 IU/L
same,AST,"[…], time 7 day",56.6 IU/L
same,BUN,"[…], time 7 day",18.4 mg/dL
same,CRE,"[…], time 7 day",0.5 mg/dL
same,Ca,"[…], time 7 day",10.3 mg/dL
same,Cl,"[…], time 7 day",105.4 meq/L
same,DBIL,"[…], time 7 day",0.052 mg/dL
same,GLC,"[…], time 7 day",215.4 mg/dL
same,IP,"[…], time 7 day",8.4 mg/dL
same,K,"[…], time 7 day",4.9 meq/L
same,LDH,"[…], time 7 day",92.2 IU/L
same,Na,"[…], time 7 day",139.4 meq/L
same,PL,"[…], time 7 day",134.8 mg/dL
same,RALB,"[…], time 7 day",3.6 g/dL
same,TBIL,"[…], time 7 day",0.3 mg/dL
same,TC,"[…], time 7 day",70.4 mg/dL
same,TG,"[…], time 7 day",91.6 mg/dL
same,TP,"[…], time 7 day",5.9 g/dL
same,gamma-GTP,"[…], time 7 day",1 IU/L
same,A/G,"[…], time 14 day",1.7
same,ALP,"[…], time 14 day",722 IU/L
same,ALT,"[…], time 14 day",11.8 IU/L
same,AST,"[…], time 14 day",53.4 IU/L
same,BUN,"[…], time 14 day",19.6 mg/dL
same,CRE,"[…], time 14 day",0.5 mg/dL
same,Ca,"[…], time 14 day",10.4 mg/dL
same,Cl,"[…], time 14 day",106 meq/L
same,DBIL,"[…], time 14 day",0.04 mg/dL
same,GLC,"[…], time 14 day",217.2 mg/dL
same,IP,"[…], time 14 day",8 mg/dL
same,K,"[…], time 14 day",5.1 meq/L
same,LDH,"[…], time 14 day",92 IU/L
same,Na,"[…], time 14 day",138.6 meq/L
same,PL,"[…], time 14 day",140.4 mg/dL
same,RALB,"[…], time 14 day",3.8 g/dL
same,TBIL,"[…], time 14 day",0.4 mg/dL
same,TC,"[…], time 14 day",70 mg/dL
same,TG,"[…], time 14 day",94.8 mg/dL
same,TP,"[…], time 14 day",6.1 g/dL
same,gamma-GTP,"[…], time 14 day",1 IU/L
same,A/G,"[…], time 28 day",1.4
same,ALP,"[…], time 28 day",589.6 IU/L
same,ALT,"[…], time 28 day",11.6 IU/L
same,AST,"[…], time 28 day",55.2 IU/L
same,BUN,"[…], time 28 day",20.2 mg/dL
same,CRE,"[…], time 28 day",0.5 mg/dL
same,Ca,"[…], time 28 day",10 mg/dL
same,Cl,"[…], time 28 day",104.6 meq/L
same,DBIL,"[…], time 28 day",0.024 mg/dL
same,GLC,"[…], time 28 day",222.6 mg/dL
same,IP,"[…], time 28 day",6.9 mg/dL
same,K,"[…], time 28 day",4.5 meq/L
same,LDH,"[…], time 28 day",75.8 IU/L
same,Na,"[…], time 28 day",140.6 meq/L
same,PL,"[…], time 28 day",141.8 mg/dL
same,RALB,"[…], time 28 day",3.6 g/dL
same,TBIL,"[…], time 28 day",0.2 mg/dL
same,TC,"[…], time 28 day",68.6 mg/dL
same,TG,"[…], time 28 day",105.4 mg/dL
same,TP,"[…], time 28 day",6.2 g/dL
same,gamma-GTP,"[…], time 28 day",1 IU/L
